Reference: ChEMBL document CHEMBL5120920, “A Mitochondria-Targeted Phenylbutyric Acid Prodrug Confers Drastically Improved Anticancer Activities” (J Med Chem, 2022)
Activity calls are given as the source filed them. The rule behind the calls is not given here.

Key:
[1] = Toxicity in BALB/c mouse at 200 mg/kg, iv administered for 7 days; assay type: organism-based; details: in vivo, 168 h, time 7 day
A-375 [2] = assay: Induction of cell cycle arrest in human A-375 cells assessed as accumulation at G1 phase at 2.5 uM incubated for 24 hrs by PI staining based flow cytometry analysis (reference value: 68.07 %); assay type: functional
[3] = Stability of the compound assessed as Carboxylesterase (unknown origin) mediated compound hydrolysis measured upto 150 mins by RP-HPLC-UV analysis; assay type: ADME; details: human, 2.5 h
A-375 [4] = assay: Induction of apoptosis in human A-375 cells assessed as apoptotic cells at 2.5 uM measured after 48 hrs by Annexin V FITC/PI staining based flow cytometry analysis relative to control; assay type: functional
A-375 [5] = assay: Antitumor activity against human A-375 cells xenografted in nude mouse assessed as reduction in tumor weight at 10 to 40 mg/kg, ip measured once every two days for 14 days; assay type: functional, organism-based; details: dose 10-40 mg/kg, time 14.0 day
A549 = assay: Induction of mitochondrial membrane hyperpolarization in human A549 cells assessed as JC-1 level at 2.5 to 10 uM incubated for 4 hrs by JC-1 staining based flow cytometry analysis relative to control; assay type: functional; details: dose 2.5-10 µM

O=C(CCCCCCCCC[P+](c1ccc(C(F)(F)F)cc1)(c1ccc(C(F)(F)F)cc1)c1ccc(C(F)(F)F)cc1)NC(COC(=O)CCCc1ccccc1)(COC(=O)CCCc1ccccc1)COC(=O)CCCc1ccccc1.[Br-]
Activity [1]: Non-Toxic
Activity (A-375 [2]): 74.71%
Stability [3]: Unstable
Activity (A-375 [4]): 6%
Activity (A-375 [5]): Active
Activity (A549): 5.01%
